# From patent US20060194807A1, “Di-aryl substituted pyrazole modulators of metabotropic glutamate receptor-5” (priority 2003, published 2006)
# Counter-ions that a name gives are not always drawn.
# Biological target: T1, hmGluR5a receptor (Homo sapiens, UniProt P41594)
# T1 construct: expressed in transfected cells; host or cells: mouse fibroblast Ltk- cells (hmGluR5a/L38-20 cell line)
# Assay: Calcium flux assay (fura-2, glutamate-evoked [Ca2+]i)
# Format: cell-based
# Conditions: hmGluR5a/L38-20 mouse fibroblast Ltk- cells; 10 μM glutamate (EC80); read-out: mGluR5 inhibitory activity, IC50
# Method: The compounds of this invention were tested against the hmGluR5a receptor stably expressed in mouse fibroblast Ltk-cells (the hmGluR5a/L38-20 cell line) and activity was detected by changes in [Ca^++]i, measured using the fluorescent Ca^++-sensitive dye, fura-2. InsP assays were performed in mouse fibroblast Ltk^− cells (LM5a cell line) stably expressing hmGluR5a. The assays described in International Patent Publication WO 0116121 can be used.
# The activity of compounds was examined against the hmGluR5a receptor stably expressed in mouse fibroblast Ltk− cells (the hmGluR5a/L38 cell line). See generally Daggett et al., Neuropharmacology 34:871-886 (1995). Receptor activity was detected by changes in intracellular calcium ([Ca^2+]i, measured using the fluorescent calcium-sensitive dye, fura-2. The hmGluR5a/L38-20 cells were plated onto 96-well plates, and loaded with 3 µM fura-2 for 1 h. Unincorporated dye was washed from the cells, and the cell plate was transferred to a 96-channel fluorimeter (SIBIA-SAIC, La Jolla, Calif.) which is integrated into a fully automated plate handling and liquid delivery system. Cells were excited at 350 and 385 nm with a xenon source combined with optical filters. Emitted light was collected from the sample through a dichroic mirror and a 510 nm interference filter and directed into a cooled CCD camera (Princeton Instruments). Image pairs were captured approximately every is, and ratio images were generated after background subtraction. After a basal reading of 20s, an EC80 concentration of glutamate (10 μM) was added to the well, and the response evaluated for another 60s. The glutamate-evoked increase in [Ca′]i in the presence of the screening compound was compared to the response of glutamate alone (the positive control).
# T1 sequence (P41594 21-1180 isoform P41594-2 limits assumed): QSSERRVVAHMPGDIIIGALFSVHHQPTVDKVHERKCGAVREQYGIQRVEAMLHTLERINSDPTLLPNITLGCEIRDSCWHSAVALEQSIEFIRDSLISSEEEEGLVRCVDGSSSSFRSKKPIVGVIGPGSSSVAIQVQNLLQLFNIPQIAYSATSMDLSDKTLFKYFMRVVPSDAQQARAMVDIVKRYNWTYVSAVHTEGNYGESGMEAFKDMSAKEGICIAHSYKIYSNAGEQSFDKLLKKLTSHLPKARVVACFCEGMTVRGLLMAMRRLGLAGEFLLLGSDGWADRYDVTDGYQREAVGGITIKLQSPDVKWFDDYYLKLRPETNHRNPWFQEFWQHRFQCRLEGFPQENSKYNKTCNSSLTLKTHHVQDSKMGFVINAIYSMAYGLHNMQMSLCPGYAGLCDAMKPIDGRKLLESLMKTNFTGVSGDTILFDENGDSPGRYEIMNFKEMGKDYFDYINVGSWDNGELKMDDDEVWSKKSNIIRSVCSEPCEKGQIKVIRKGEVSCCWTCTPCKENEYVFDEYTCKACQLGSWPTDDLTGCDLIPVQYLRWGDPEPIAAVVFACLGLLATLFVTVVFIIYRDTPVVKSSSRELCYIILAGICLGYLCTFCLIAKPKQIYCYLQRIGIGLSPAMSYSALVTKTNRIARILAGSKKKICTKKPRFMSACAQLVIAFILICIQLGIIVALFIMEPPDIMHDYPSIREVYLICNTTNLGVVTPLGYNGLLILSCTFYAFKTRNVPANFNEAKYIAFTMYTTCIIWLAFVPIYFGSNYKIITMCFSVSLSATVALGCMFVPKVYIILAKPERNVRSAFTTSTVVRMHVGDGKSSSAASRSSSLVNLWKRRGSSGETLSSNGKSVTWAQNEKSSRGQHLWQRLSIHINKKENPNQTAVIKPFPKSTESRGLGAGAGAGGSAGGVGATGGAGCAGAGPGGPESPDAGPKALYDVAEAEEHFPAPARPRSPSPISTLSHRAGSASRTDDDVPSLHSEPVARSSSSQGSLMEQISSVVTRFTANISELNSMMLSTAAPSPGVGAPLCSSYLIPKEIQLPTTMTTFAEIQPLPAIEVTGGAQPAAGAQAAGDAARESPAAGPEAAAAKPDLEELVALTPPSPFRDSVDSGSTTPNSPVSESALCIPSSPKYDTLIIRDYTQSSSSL
row,SMILES,IC50 [µM]
1,Cc1cc(-c2cnn(-c3ccc(N4CCN(C)C4=O)cc3)c2)nc2ccccc12 [Example 30],> 2
2,c1ccc(-c2ccc(-n3cc(-c4ccncn4)cn3)cc2)cc1 [Example 25],> 2
3,"c1ccc(-c2ccc(-n3ccc(-c4ccccn4)n3)cc2)cc1 [Example 9, 2-(1-biphenyl-4-yl-1H-pyrazol-3-yl)-pyridine hydrochloride]",> 2
4,"Clc1cc(-c2cccnc2)cc(-n2cc(-c3ccccn3)cn2)c1 [Example 1, 2-[1-(3-chloro-5-pyridin-3-ylphenyl)-1H-pyrazol-4-yl]pyridine]",< 2
5,CN1CCN(c2ccc(-n3cc(-c4ccc5ccccc5n4)cn3)cc2)C1=O [Example 28],> 2
6,CN1CCN(c2ccc(-n3cc(-c4cnc5ccccc5n4)cn3)cc2)C1=O [Example 29],> 2
7,"Fc1cc(-c2nn[nH]n2)cc(-n2ccc(-c3ccccn3)n2)c1 [Example 2, 2-{1-[3-fluoro-5-(2H-tetraazol-5-yl)phenyl]-1H-pyrazol-3-yl}pyridine]",< 2
8,c1ccc(-c2ccccc2-n2cc(-c3ccncn3)cn2)cc1 [Example 18],> 2
9,c1ccc(-c2cccc(-n3cc(-c4ccccn4)cn3)c2)nc1 [Example 5],< 2
10,c1ccc(-c2cnn(-c3ccc(C4CCCCC4)cc3)c2)nc1 [Example 20],> 2
11,"c1ccc(-c2cnn(-c3cccc(-c4cccnc4)n3)c2)nc1 [Example 8, 6-(4-pyridin-2-yl-1H-pyrazol-1-yl)-2,3′-bipyridine]",> 2
12,c1ccc(-c2cccc(-n3cc(-c4ccccn4)cn3)c2)cc1 [Example 31],> 2
13,Fc1cc(-c2cnn(-c3ccccn3)c2)ccc1-c1ccccn1 [Example 15],> 2
14,Clc1cc(-c2cnn(-c3ccccn3)c2)cc(-n2ccc3ccncc32)c1 [Example 14],> 2
15,Cc1cc(-c2cnn(-c3ccc(C4CCCCC4)cc3)c2)nc2ccccc12 [Example 24],> 2
16,"Clc1cc(-c2cccnc2)cc(-c2cnn(-c3ccccn3)c2)c1 [Example 3, 2-[4-(3-chloro-5-pyridin-3-ylphenyl)-1H-pyrazol-1-yl]pyridine]",< 2
17,c1ccc(-c2cnn(-c3ccc(-c4cccnc4)cc3)c2)nc1 [Example 12],> 2
18,c1ccc(-c2cccc(-n3cc(-c4ccccn4)cn3)c2)cc1 [Example 6],< 2
19,Cc1ccncc1-c1cc(F)cc(-c2cnn(-c3ccccn3)c2)c1 [Example 13],> 2
20,CN1CCN(c2ccc(-n3cc(-c4ccncn4)cn3)cc2)C1=O [Example 27],> 2

# Other lines, results leading:
row,IC50 [µM],SMILES
1,> 2,Cc1cc(-c2cnn(-c3ccc(N4CCNC4=O)cc3)c2)nc2ccccc12 [Example 26]
2,> 2,c1ccc2nc(-c3cnn(-c4ccc(C5CCCCC5)cc4)c3)ccc2c1 [Example 22]
3,> 2,c1ccc(-c2ccccc2-n2cc(-c3ccccn3)cn2)cc1 [Example 17]
4,> 2,c1ccc(-c2ccc(-n3cc(-c4ccccn4)cn3)cc2)nc1 [Example 11]
5,< 2,COc1cc(-c2cnn(-c3ccccn3)c2)ccc1-c1ccccn1 [Example 7]
6,> 2,c1cc(-c2cnn(-c3ccc(C4CCCCC4)cc3)c2)ncn1 [Example 21]
7,> 2,c1ccc(-c2ccc(-n3cc(-c4ccccn4)cn3)cc2)cc1 [Example 16]
8,> 2,c1ccc2nc(-c3cnn(-c4ccc(C5CCCCC5)cc4)c3)cnc2c1 [Example 23]
9,> 2,c1ccc(-c2cccc(-c3cnn(-c4ccccn4)c3)c2)cc1 [Example 33]
10,> 2,c1ccc(-c2cccc(-n3cc(-c4ccncn4)cn3)c2)cc1 [Example 19]
11,< 2,c1ccc(-c2cnn(-c3cccc(-c4cccnc4)c3)c2)nc1 [Example 4]
12,> 2,c1ccc(-c2cnn(-c3cccc(-c4ccncc4)c3)c2)nc1 [Example 10]
